Blank lines part the entries; values can stand above or below the compound they belong to.
Experiments:
Format in all cases: biochemical
BRAF^WT = BRAF^WT (Homo sapiens, UniProt P15056); test: ELISA-based MEK phosphorylation assay
PI3Kγ = PI3Kγ (Homo sapiens, UniProt P48736); test: Kinase profiling, PI3Kγ lipid kinase; conditions: BRAF versus PI3Kγ
GSK3β = GSK3β (Homo sapiens, UniProt P49841); test: Kinase profiling, GSK3β; conditions: inhibitor concentration of 100 μM
Pim1 = Pim1 (Homo sapiens, UniProt P11309); test: Kinase profiling, Pim1; conditions: inhibitor concentration of 100 μM
Chain of Pim1 (P11309 whole entry, species assumed): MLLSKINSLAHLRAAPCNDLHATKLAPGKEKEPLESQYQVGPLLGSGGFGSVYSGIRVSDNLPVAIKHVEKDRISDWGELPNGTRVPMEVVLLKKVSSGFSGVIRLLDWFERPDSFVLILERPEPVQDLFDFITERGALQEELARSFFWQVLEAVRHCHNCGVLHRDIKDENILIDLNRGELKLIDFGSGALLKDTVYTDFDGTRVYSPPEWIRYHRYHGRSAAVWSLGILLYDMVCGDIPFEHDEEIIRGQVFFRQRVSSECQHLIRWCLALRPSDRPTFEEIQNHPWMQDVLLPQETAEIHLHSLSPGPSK

MST1 = molecular target: T1, MST1 (Homo sapiens, UniProt Q13043); test: Kinase profiling, MST1; conditions: inhibitor concentration of 100 μM
T1 sequence (Q13043 1-487): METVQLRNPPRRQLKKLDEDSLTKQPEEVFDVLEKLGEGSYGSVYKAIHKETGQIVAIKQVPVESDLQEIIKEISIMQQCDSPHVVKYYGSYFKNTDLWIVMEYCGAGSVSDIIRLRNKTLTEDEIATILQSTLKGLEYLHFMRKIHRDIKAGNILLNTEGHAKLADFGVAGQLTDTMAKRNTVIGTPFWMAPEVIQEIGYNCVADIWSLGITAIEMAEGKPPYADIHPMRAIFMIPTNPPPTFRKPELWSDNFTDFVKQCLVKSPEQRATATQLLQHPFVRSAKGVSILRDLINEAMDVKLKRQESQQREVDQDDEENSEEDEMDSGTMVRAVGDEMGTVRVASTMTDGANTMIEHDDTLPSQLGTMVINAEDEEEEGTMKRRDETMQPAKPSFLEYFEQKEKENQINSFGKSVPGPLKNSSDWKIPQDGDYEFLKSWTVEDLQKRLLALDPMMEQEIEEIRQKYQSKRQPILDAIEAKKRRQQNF

PAK1 = PAK1 (Homo sapiens, UniProt Q13153); test: Kinase profiling, PAK1; conditions: inhibitor concentration of 100 μM
Chain of PAK1 (Q13153 whole entry): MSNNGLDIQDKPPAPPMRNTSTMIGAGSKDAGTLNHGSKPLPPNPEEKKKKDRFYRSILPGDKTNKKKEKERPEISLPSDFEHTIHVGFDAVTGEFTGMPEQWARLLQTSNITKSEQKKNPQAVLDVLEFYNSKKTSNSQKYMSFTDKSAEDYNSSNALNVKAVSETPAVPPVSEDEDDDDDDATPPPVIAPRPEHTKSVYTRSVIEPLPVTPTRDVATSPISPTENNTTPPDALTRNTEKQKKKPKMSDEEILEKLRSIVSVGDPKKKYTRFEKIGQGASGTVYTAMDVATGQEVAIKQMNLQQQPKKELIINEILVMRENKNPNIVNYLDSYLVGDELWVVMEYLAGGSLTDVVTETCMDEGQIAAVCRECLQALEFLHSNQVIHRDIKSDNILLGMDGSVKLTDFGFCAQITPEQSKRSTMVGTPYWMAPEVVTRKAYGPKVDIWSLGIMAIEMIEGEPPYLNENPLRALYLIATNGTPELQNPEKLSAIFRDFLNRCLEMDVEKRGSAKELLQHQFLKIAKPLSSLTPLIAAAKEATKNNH

PAK4 = PAK4 (Homo sapiens, UniProt O96013); test: Kinase profiling, PAK4; conditions: inhibitor concentration of 100 μM
Chain of PAK4 (O96013 whole entry, species assumed): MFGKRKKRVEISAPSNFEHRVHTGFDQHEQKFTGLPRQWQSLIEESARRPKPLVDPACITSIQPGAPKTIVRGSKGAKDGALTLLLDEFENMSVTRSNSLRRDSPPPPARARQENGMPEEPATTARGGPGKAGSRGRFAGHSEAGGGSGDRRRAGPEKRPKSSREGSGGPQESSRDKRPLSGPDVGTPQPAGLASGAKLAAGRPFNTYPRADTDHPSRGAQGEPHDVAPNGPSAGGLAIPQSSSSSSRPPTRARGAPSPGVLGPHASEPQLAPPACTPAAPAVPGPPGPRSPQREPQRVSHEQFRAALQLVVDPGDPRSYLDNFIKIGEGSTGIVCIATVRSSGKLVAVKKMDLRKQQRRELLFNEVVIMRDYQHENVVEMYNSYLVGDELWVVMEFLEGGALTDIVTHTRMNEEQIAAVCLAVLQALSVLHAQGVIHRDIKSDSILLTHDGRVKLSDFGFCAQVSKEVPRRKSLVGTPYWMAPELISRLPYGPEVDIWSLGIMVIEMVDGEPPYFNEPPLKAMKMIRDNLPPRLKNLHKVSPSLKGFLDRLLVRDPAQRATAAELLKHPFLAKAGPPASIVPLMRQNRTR

Chain of BRAF^WT (P15056 433-726): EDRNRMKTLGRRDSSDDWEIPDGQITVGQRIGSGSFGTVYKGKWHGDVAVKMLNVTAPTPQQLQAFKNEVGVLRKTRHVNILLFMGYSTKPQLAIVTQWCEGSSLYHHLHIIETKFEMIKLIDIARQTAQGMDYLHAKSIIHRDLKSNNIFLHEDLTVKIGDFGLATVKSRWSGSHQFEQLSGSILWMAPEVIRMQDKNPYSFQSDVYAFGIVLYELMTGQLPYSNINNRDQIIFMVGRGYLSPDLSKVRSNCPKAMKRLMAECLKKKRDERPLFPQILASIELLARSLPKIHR
Chain of PI3Kγ (P48736 whole entry, species assumed): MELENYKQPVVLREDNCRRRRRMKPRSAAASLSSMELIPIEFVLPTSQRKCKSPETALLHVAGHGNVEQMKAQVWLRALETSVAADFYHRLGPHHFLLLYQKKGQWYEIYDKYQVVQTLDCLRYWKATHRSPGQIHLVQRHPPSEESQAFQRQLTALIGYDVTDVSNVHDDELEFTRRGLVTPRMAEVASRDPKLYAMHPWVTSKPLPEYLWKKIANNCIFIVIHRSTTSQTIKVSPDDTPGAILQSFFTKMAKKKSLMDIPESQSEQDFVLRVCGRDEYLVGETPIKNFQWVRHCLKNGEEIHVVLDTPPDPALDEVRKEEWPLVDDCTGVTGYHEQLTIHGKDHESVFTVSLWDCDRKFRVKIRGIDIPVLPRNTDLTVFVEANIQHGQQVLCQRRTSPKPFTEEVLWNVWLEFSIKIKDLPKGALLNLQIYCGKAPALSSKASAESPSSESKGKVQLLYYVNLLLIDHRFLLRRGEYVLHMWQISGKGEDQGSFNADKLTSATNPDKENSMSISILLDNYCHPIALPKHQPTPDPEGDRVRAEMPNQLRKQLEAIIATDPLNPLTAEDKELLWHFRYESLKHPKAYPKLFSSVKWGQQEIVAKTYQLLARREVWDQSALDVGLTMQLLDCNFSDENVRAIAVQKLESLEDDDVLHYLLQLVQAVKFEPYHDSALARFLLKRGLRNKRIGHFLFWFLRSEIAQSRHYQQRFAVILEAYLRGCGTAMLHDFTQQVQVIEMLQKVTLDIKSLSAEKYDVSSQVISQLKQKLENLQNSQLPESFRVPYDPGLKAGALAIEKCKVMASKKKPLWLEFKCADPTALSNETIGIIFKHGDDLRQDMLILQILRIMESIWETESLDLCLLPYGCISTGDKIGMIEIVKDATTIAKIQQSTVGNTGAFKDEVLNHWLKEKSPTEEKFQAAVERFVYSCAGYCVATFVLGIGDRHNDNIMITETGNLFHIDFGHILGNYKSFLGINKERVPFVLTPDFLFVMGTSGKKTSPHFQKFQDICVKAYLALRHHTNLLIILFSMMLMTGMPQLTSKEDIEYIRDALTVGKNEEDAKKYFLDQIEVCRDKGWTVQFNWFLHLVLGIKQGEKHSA
Chain of GSK3β (P49841 whole entry, species assumed): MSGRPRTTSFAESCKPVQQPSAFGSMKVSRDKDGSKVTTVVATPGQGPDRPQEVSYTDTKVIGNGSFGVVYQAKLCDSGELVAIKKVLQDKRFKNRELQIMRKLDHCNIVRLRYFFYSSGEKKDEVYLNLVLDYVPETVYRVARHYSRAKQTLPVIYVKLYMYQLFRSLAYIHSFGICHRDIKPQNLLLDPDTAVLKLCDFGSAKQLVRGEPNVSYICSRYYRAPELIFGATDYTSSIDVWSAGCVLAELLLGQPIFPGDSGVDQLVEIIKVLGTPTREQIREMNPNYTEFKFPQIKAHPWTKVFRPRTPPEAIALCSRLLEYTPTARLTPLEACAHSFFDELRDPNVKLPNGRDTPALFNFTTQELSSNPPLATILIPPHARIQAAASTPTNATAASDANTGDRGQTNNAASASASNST

selectivity for BRAF over other representative protein kinases (BRAF^WT; versus GSK3β, Pim1, MST1, PAK1, PAK4): more than 50 fold
selectivity for BRAF over PI3K lipid kinases (PI3Kγ): > 12 fold
inhibition against GSK3β (GSK3β): did not show significant inhibition
inhibition against Pim1 (Pim1): did not show significant inhibition
inhibition against MST1 (MST1): did not show significant inhibition
inhibition against PAK1 (PAK1): did not show significant inhibition
inhibition against PAK4 (PAK4): did not show significant inhibition
Structure (SMILES): Cn1c(=O)n(Cc2ccccc2)c(=O)c2c1nc(SCCO)n2Cc1ccccc1 [compound 24]

remaining activity at 100 µM (BRAF^WT; read-out: BRAF kinase activity remaining (of wild-type activity)): ~80%
Structure (SMILES): CC1Nc2nc(NC(=O)c3ccc[n+](C)c3)[nH]c(=O)c2N(C(=O)c2ccc[n+](C)c2)C1C (stereo not shown) [compound 1]

reduction in BRAF inhibitor potency relative to compound 19 (BRAF^WT): ≥ 20 fold
Structure (SMILES): Cn1c(=O)[nH]c(=O)c2c1nc(N/N=C\c1ccc([N+](=O)[O-])cc1)n2Cc1ccccc1 [compound 32]

reduction in BRAF inhibitor potency relative to compound 19 (BRAF^WT): ≥ 20 fold
Structure (SMILES): Cn1c(=O)[nH]c(=O)c2c1nc(N/N=C\c1cccc([N+](=O)[O-])c1)n2Cc1ccccc1 [compound 31]

From paper PMC4010122 (Journal of medicinal chemistry, 2008)
